# Entries after “also recorded” stand apart in the source; their conditions may differ. Like-named read-outs stand apart in the source and are kept apart here.
# Assays:
# [1] = target: SzeaOBP1 (Sitophilus zeamais, UniProt A0A4P9CZ78); test: Fluorescence competitive binding assay (1-NPN probe) with recombinant SzeaOBP1; settings: for binding to SzeaOBP1, in words: fluorescence competitive binding
# Procedure: (§1) Emission fluorescence spectra were recorded on a Fluoromax-4500 fluorescence spectrophotometer (Hitachi, Tokyo, Japan) at room temperature in right-angle configuration, with a 1 cm light-path quartz cuvette and 5 nm slits for both excitation and emission. The protein was dissolved in 50 mM Tris-HCl buffer (pH 7.4), and ligands were added as 1 mM methanol solutions. A methanol solution of N-Phenyl-1-naphthylamine (1-NPN) (1 mM) was used as the fluorescent probe, and chromatography-grade methanol was used as the solvent. For determination of the binding constants of the SzeaOBPs with the probe, the excitation wavelength was set at 337 nm, and the emission wavelength was increased from 370 to 500 nm for scanning. The target SzeaOBP proteins were diluted in Tris-HCl buffer (pH 7.4) to a final concentration of 2 μM. After the sample was added, the fluorescence intensity was allowed to stabilize (approximately 15 s), and the maximum fluorescence intensity was recorded; the binding constant between the protein and probe was determined. This process was repeated three times for each sample. Then, the ligands (odorant standard samples) were diluted with pure methanol for competitive binding analysis. The final concentration of each ligand was […]. The final concentration of ligands in the colorimetric dish increased by 2 μM upon adding the ligands one by one. […] The binding constants between the target SzeaOBP proteins and the ligands were determined. The fluorescence intensity was measured by adding 50 mM Tris-HCl buffer, SzeaOBP protein, and the fluorescence probe 1-NPN to the colorimetric dish for fluorescence measurement. The final concentration was 2 μM. When the fluorescence intensity was stable, the maximum fluorescence intensity was recorded, and then the ligands dissolved in methanol were added to the colorimetric dish one by one. The concentration increased from 2 μM, and the changes in fluorescence intensity were recorded. Each measurement was repeated three times.
# (§2) To calculate the binding constants, the fluorescence intensity and ligand concentration were plotted using GraphPad Prism 5. Assuming that 1-NPN binds to the protein at a 1:1 ratio and that the protein was 100% active, the curve was linearized using a Scatchard plot.
# [2] = target: SzeaOBP28 (Sitophilus zeamais, UniProt A0A4V1GPX2); test: Fluorescence competitive binding assay (1-NPN probe) with recombinant SzeaOBP28; settings: for binding to SzeaOBP28, in words: fluorescence competitive binding
# SzeaOBP28, sequence (A0A4V1GPX2 entry or part of it): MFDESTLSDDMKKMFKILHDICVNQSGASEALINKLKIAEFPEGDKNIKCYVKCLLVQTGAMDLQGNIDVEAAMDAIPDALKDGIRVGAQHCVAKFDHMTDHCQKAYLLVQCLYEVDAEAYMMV
# Procedure: as §1, §2
# [3] = system: adult S. zeamais; test: Behavioural experiment in a Y-tube olfactometer, normal adults; type: in vivo, Sitophilus zeamais; settings: normal insects, 10 min observation
# Procedure: The behavioral experiments were designed to test the results for selected odorants. The odorant compounds used in behavioral experiments are from Table 1. To avoid the effects of temperature and light on the experiment, the evaluations were performed in a constant temperature and humidity (CTH) room at 28 ± 1 °C and 80% relative humidity under dim light supplied by a red fluorescent tube with no natural lighting. A Y-tube olfactometer system that was previously described by Yusuf and Takabayashi was used to test the attractiveness of different odorant treatments to adult maize weevils. The system comprised a central tube (10 cm long) and two lateral arms (each 15 cm long and 15 mm wide). The angles between the two arms were 75°. Each arm was connected to a glass chamber (200 mL capacity) holding the different odorants. The different parts of the device were connected in the following order: air pump, activated carbon filter, distilled water humidifier, odorant source device, gas flow meter, and Y-tube olfactometer. The parts were connected by Teflon tubes. Airflow through both arms was generated by applying air pressure, and the air was purified using a charcoal-filled gas wash bottle. The airflow through the arms of the Y-tube (150 mL/min/arm) was adjusted by using flow metres, which were positioned between the flasks and the Y-tube. A clean Y-tube was used for each test to avoid carryover of odorants.
# Before bioassays, according to the experimental requirements, the odorant source was placed in the odorant source device, which was then ventilated for 15 min so that the odorant filled the tube to ensure accuracy of the test results. The antennae and appendages of the selected insects were verified to be intact, and the insects were confirmed to be active. The insects were introduced from the base of the main arm of the Y-tube olfactometer. The selected odorant was used for the treatment group, and a blank was used for the control group. A single adult S. zeamais insect was introduced into the Y-tube olfactometer at the entrance of the stem, with a maximum observation duration of 10 min per beetle, and the responses were considered positive when the insects reached at least 2 cm along the arm connected to the test chambers. […] Insects were used only once and then discarded. Each odorant was used to test 30 adult maize weevils, and the number of male and female insects per test was the same. Three groups of experiments were repeated for three times.
# [4] = calculated from IC50 with K1-NPN 8.590 μM, protein and 1-NPN 2 μM, Tris-HCl pH 7.4, read-out: Ki SzeaOBP1
# [5] = displacement of 1-NPN, protein and 1-NPN 2 μM, Tris-HCl pH 7.4, read-out: IC50 SzeaOBP1
# [6] = calculated from IC50 with K1-NPN 7.214 μM, protein and 1-NPN 2 μM, Tris-HCl pH 7.4, read-out: Ki SzeaOP28
# [7] = displacement of 1-NPN, protein and 1-NPN 2 μM, Tris-HCl pH 7.4, read-out: IC50 SzeaOP28
# SzeaOBP1, sequence (A0A4P9CZ78 entry or part of it): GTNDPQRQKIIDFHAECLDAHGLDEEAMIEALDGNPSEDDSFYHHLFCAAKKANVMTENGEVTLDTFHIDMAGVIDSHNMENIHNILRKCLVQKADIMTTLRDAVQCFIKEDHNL
SMILES,"Ki [1, 4] [µM]","IC50 [1, 5] [µM]","Ki [2, 6] [µM]","IC50 [2, 7] [µM]",other results
CCC(C)C=O (stereo not drawn) [2-Methylbutyraldehyde],4.2 ± 0.087,4.92 ± 0.102,> 49.2,> 60,behavioural response (attraction) of male and female adults vs blank control [3]: Significant differences
"CCCCCCCCCCCCCCCC [N-Hexadecane, N-hexadecane]",> 51.2,> 60,> 49.2,> 60,
CCCCCC=O [1-Pentanecarbaldehyde],,,,,IC50 [1]: 6.07 ± 0.154 µM; Ki [1]: 5.18 ± 0.132 µM; IC50 [2]: 59.4 ± 1.21 µM; Ki [2]: 48.7 ± 0.852 µM
CCCCCCCCO [Capryl alcohol],6.67 ± 0.199,7.81 ± 0.233,> 49.2,> 60,
CCCCC=O [Valeraldehyde],4.88 ± 0.103,5.71 ± 0.121,> 49.2,> 60,behavioural response (attraction) of male and female adults vs blank control [3]: responded strongly
CCCCCCCCC=O [Nonanal],4.42 ± 0.095,5.18 ± 0.111,48.2 ± 1.1,58.9 ± 1.34,
"CCCC(C)=O [Ligand 2-Pentanone, 2-Pentanone]",,,,,IC50 [1]: 11.6 ± 0.312 µM; Ki [1]: 9.92 ± 0.267 µM; IC50 [2]: > 60 µM; Ki [2]: > 49.2 µM
COc1cc(C=O)ccc1O [4-Hydroxy-3-methoxybenzaldehyde],,,,,"IC50 [1]: 4.37 ± 0.203 µM; Ki [1]: 3.73 ± 0.173 µM; IC50 [2]: 24.7 ± 2.34 µM; Ki [2]: 20.2 ± 1.92 µM; binding to SzeaOBP28, in words [2]: pronounced binding affinity; behavioural response (attraction) of male and female adults vs blank control [3]: responded strongly; also recorded: stimulated activity in a significantly higher number of normal male and female weevils than the control treatment"
"CCCCCCCCCO [Ligand 1-Nonanol, 1-Nonanol]",6.94 ± 0.234,8.13 ± 0.274,> 49.2,> 60,
O=Cc1ccccc1 [Benzaldehyde],,,,,IC50 [1]: 5.2 ± 0.092 µM; Ki [1]: 4.44 ± 0.079 µM; IC50 [2]: > 60 µM; Ki [2]: > 49.2 µM
CCCCCCC=O [Heptaldehyde],4.87 ± 0.111,5.71 ± 0.13,> 49.2,> 60,
C=CC(=C)CCC=C(C)C [Myrcene (stabilized with BHT)],30.3 ± 0.798,35.5 ± 0.931,> 49.2,> 60,
"CCCCCCCCCCCCCCCC(=O)O [Palmitic Acid, Palmitic acid]",24.2 ± 1.78,28.3 ± 2.08,40.8 ± 1.41,49.7 ± 1.72,
CCCCCCCCCC=O [Decanal],> 51.2,> 60,> 49.2,> 60,"binding to SzeaOBP1, in words [1]: did not bind; binding to SzeaOBP28, in words [2]: did not bind"
Cc1occc(=O)c1O [Maltol (3-hydroxy-2-methyl-4-pyrone)],5.28 ± 0.333,6.18 ± 0.39,> 49.2,> 60,
CC(C)CC=O [3-Methylbutanal],6.51 ± 0.163,7.62 ± 0.191,> 49.2,> 60,
CC(=O)CCC=C(C)C [6-Methyl-5-hepten-2-one],,,,,IC50 [1]: 6.5 ± 0.15 µM; Ki [1]: 5.55 ± 0.128 µM; IC50 [2]: 45.8 ± 1.23 µM; Ki [2]: 37.6 ± 1.01 µM
CCCCCCCC=O [n-Octanaldehyde],3.22 ± 0.103,3.77 ± 0.12,> 49.2,> 60,behavioural response (attraction) of male and female adults vs blank control [3]: no obvious effect
CC(C)C=O [Isobutyraldehyde],4.26 ± 0.138,4.99 ± 0.162,> 49.2,> 60,
CC(C)=O [Acetone],4.54 ± 0.172,5.32 ± 0.201,39.8 ± 0.731,48.6 ± 0.861,
"COCCOC(=O)c1ccccc1C(=O)OCCOC [Bis(methylglycol) phthalate, Bis(2-methoxyethyl) phthalate]",,,,,IC50 [1]: 4.76 ± 0.147 µM; Ki [1]: 4.07 ± 0.125 µM; IC50 [2]: 38.87 ± 0.2 µM; Ki [2]: 31.86 ± 0.164 µM
"c1ccc(Nc2cccc3ccccc23)cc1 [Ligand 1-NPN, N-Phenyl-1-naphthylamine, reference compound]",,,,,Kd [1]: 8.59 µM; Kd [2]: 7.21 µM
CCCCCCCCCCCCCCC [Pentadecane],> 51.2,> 60,> 49.2,> 60,
CC(=O)O [Acetic acid (glacial)],15.7 ± 0.717,18.4 ± 0.84,> 49.2,> 60,
CCCCCCCCCCCCCCCCO [Cetanol],2.75 ± 0.139,3.22 ± 0.162,> 49.2,> 60,"binding to SzeaOBP1, in words [1]: extremely high binding affinity; behavioural response (attraction) of male and female adults vs blank control [3]: Significant differences"
CC1=CC[C@@H]2C[C@H]1C2(C)C [(+)-a-Pinene],> 51.2,> 60,> 49.2,> 60,"binding to SzeaOBP1, in words [1]: did not bind; binding to SzeaOBP28, in words [2]: did not bind"
CCCCC/C=C\C/C=C\CCCCCCCC(=O)O [Linoleic acid],> 51.2,> 60,> 49.2,> 60,"binding to SzeaOBP1, in words [1]: did not bind; binding to SzeaOBP28, in words [2]: did not bind"
"CCCCCCO [Ligand 1-Hexanol, 1-Hexanol]",4.67 ± 0.159,5.47 ± 0.186,> 49.2,> 60,

# Source: PMC6920827, “Characterization of the Expression and Functions of Two Odorant-Binding Proteins of Sitophilus zeamais Motschulsky (Coleoptera: Curculionoidea)” (Insects, 2019)
